Results as given in patent publication US20250221953A1 (The University of Chicago, priority 2022, published 2025).

What was measured:
mouse CD8^+ T cells [1] = test: KAS-seq, mouse CD8+ T cells; format: cell-based; conditions: 20 μM TVA, 20 min-2 h
Procedure: (§1) 500 mM N3-kethoxal was then supplemented into the media followed by brief, vigorous shaking to fully homogenize the solution. The 6-well plates were then moved into the cell incubator (37° C., 5% CO2) for 10 minutes to promote labeling of genomic single-stranded DNA (ssDNA). Cell suspensions were then transferred to 15 mL conical tubes and centrifuged at 300×g for 5 minutes at 4° C. The supernatant media was discarded, and genomic DNA was then extracted. […] Dual index libraries were constructed for high throughput sequencing using an Accel-NGS Methyl-seq DNA library kit and then sequenced at the Genomics Facility (University of Chicago) via Illumina NovaSeq 6000 (SP flowcell, 100 bp cassette) in two separate runs. […] M. musculus and H. sapiens CD8^+ T cell KAS-seq data were assessed separately.

mouse CD8^+ T cells [2] = test: RNA-sequencing of CD8+ T cells with or without TVA (also siNTC / siCreb1); format: cell-based; conditions: 20 μM TVA, 24 h
[3] = system: mouse primary CD8^+ T cells; test: Phospho antibody array; format: cell-based
Procedure: The quantification for pixel density in each spot of the array was carried out by subtracting background signals from the spot intensity using software ImageJ (ImageJ, RRID: SCR_003070). Please also refer to Resources Table and Table 6 for more details.

[4] = system: tumor infiltrating immune cells; test: Tumor immune cell analysis (macrophages, CD8, Tregs, DCs); format: in vivo; conditions: TVA treatment
[5] = system: human T cell and CD8^+ T cell treated with rhPD-L1; test: rhPD-L1 exhaustion assay of human T cells and CD8+ T cells; format: cell-based; conditions: 20 μM TVA; 0.5 μg/mL rhPD-L1, 72 hours; IL-2, TNF-α
B16F10 tumor = test: Mouse tumor model, B16F10; format: in vivo; conditions: B16F10 tumor-bearing C57BL/6 mice on enriched diet vs control diet
Procedure: For C57BL/6 mice and TCR-a KO mice tumor model, mice were anesthetized with isoflurane, shaved the injection site, and then injected subcutaneously in the abdominal flank with 1×10^5 B16F10, MC38, or LLC1 cells, or in the mammary gland with 2×10^5 E0771 cells. C57BL/6 nude mice were injected subcutaneously in the abdominal flank with 1×10^5B16F10 cells. […] Tumors were measured the tumors using a caliper every 2-3 days. Tumor volumes were calculated using the following formula: length×width×[(length×width)^0.5]×π/6. Mice were euthanized at humane endpoints or day 11-15 for tissue collection.
The mice were treated once a day for 5 consecutive days per week for 2 weeks. Tumors were measured the tumors using a caliper every 2-3 days. Tumor volumes were calculated using the following formula: length×width×[(length×width)^0.5]×π/6. Mice were euthanized at humane endpoints.
For anti-PD-1 treatment mouse model, 6-8 weeks old C57BL/6 mice were anesthetized with isoflurane, shaved the injection site, and then injected subcutaneously in the abdominal flank with 1×10^5 B16F10 for tumor development. […] In day 3, 6, 9, 12, and 15, 250 μg anti-PD-1 (BioXCell) or IgG control (BioXCell) was injected intraperitoneally per mouse. Tumors were measured the tumors using a caliper every 2-3 days. Tumor volumes were calculated using the following formula: length×width×[(length×width)^0.5]×π/6. […]

colon tumors = test: Colon tumorigenesis in Apc+/fl; Cdx-2P-Cre-NLS mice; format: in vivo, mouse; conditions: gavage TVA 35 mg/kg bw daily×5 days for 4 wks; lipid rich diet
human CD8^+ T cells = test: KAS-seq, human CD8+ T cells; format: cell-based; conditions: 20 μM TVA, 20 min-2 h
Procedure: as §1

[6] = system: tumor-infiltrating CD8^+ T cells
Procedure: After incubation at 37° C. for 25 min on a shaking platform, the digested tumor tissues were transferred into a 70 μm mesh nylon strainer on a 50 mL conical tube, pushed through the strainer using the rubber end of a syringe plunger, and rinsed with the recommended medium. After centrifugation at 300×g for 10 min at room temperature with the brake on low, the resulting cell pellets were added 10 mL of ammonium chloride solution for incubation at room temperature for 5 minutes, followed by centrifugation at 300×g for 10 minutes at room temperature with the brake on low.
Freshly excised mouse tumor tissues were minced into small pieces (volume smaller than 1 mm^3) by scissors in PBS, digested by Collagenase IV (1 mg/mL) and DNase I (200 U/mL) at 37° C. for 20 minutes in PBS with gentle rocking. The digested tumor tissues were added 5 times volume 0.01M EDTA, filtered into new tube through 200 mesh screen (100 μm strainer), and then centrifuged at 300×g for 5 minutes at room temperature. The resulting cell pellets were re-suspended with 3 mL PBS, laid gently on 3 mL lymphocytes isolation liquid (pre-warmed to room temperature), and subjected to density gradient centrifugation (300×g, 30 minutes, room temperature, accelerate 6, decelerate 2). The middle layer of cells was moved carefully to a new tube, added PBS to 15 mL, and centrifuged (300×g, 10 minutes, room temperature). The cell pellets (lyse red cells if necessary) were designated tumor-infiltrating lymphocytes and used for following experiments.
Mouse spleens were disrupted with syringe plunger in 1 mL PBS in a 40 μm strainer filtered to a 15 mL tube, washed with PBS and centrifuged at 300×g for 5 minutes. The resulting cell pellets were re-suspended the with 2 mL red cell lysis buffer (Invitrogen), incubated at room temperature for 10 minutes, and centrifuged at 300×g for 5 minutes after adding 13 mL PBS. The resulting cell pellets was designated splenocytes and used for following experiments.
Draining lymph nodes were disrupted with syringe plunger in 1 mL PBS in a 40 μm strainer filtered to a 15 mL tube, washed with PBS, and centrifuged at 300×g for 5 minutes. The resulting cell pellets was designated LN Lymphocytes and used for following experiments.
Mouse primary cells isolated from tumor, spleen, draining lymph node were stained with fluorescent antibodies and analyzed by flow cytometry.
For experiments with live/dead criteria, cells were first stained with Fixable Viability Dyes (FVD) (Thermo Fisher Scientific) according to the manufacturer's instructions. Subsequent surface marker staining was performed in Flow Cytometry Staining Buffer (Thermo Fisher Scientific). Intracellular staining for flow panels containing nuclear proteins was performed using the eBioscience FoxP3/Transcription Factor Staining Buffer Set (Thermo Fisher Scientific) according to the manufacturer's instructions. For intracellular staining of cytoplasmic proteins, the Fixation/Permeabilization Solution Kit (BD Biosciences) was used according to the manufacturer's instructions.
For phospho antibody staining, cells were incubated with FVD (cell viability dye) for 15 minutes at room temperature in a tube, re-suspended with 200 μL pre-warmed 1×BD Phosflow Lyse/Fix buffer directly into the tube, and incubated at 37° C. for 10-15 minutes, followed by centrifugation at 300×g for 5 minutes. The resulting cell pellets were washed once with FACS buffer, permeabilized with 200 μL of BD Phosflow Perm Buffer III for 45 minutes on ice, and centrifuged at 300×g for 5 minutes.

Mouse CD8^+ T cell = test: Second screen: IL-2 level of mouse CD8+ T cells
influenza virus = test: Influenza virus challenge of mice; format: in vivo, mouse
Source text: Control mice were born by mothers on normal diet, followed by normal milk feeding and normal diet since weaning.

[7] = Extraction and quantification of TVA levels by NMR (mouse serum and TIF); format: in vivo; conditions: B16F10 tumor bearing mice, TVA-enriched diet; 1H NMR
Mouse T cell = test: Second screen: IL-2 level of murine primary T cells; format: cell-based
Source text: Two preliminary screens were designed and performed.

## CCCCCC/C=C/CCCCCCCCCC(=O)O [TVA, trans-vaccenic acid]
Mouse CD8^+ T cells [1]
  GO enrichment of altered gene bodies (KAS-seq): G-protein coupled receptor (GPCR) activities among the top-enriched ontologies
Mouse CD8^+ T cells [2]
  gene expression (RNA-seq, GSEA): enhances expression of the genes enriched in effector CD8^+ T cell function, E2F and MYC pathways
[3]; 40 min, 2 h and 6 h post-TVA treatment, reduces at 24 h
  p-CREB level (phospho-antibody array): Increased p-CREB level
[3]; 2 h and 24 h TVA treatment
  p-STAT1 level (phospho-antibody array): elevated
[3]; 2 h post-TVA treatment
  phosphorylation level of AKT (p-AKT): reduced phosphorylation level of AKT (p-AKT)
  phosphorylation level of STAT3 (p-STAT3): increased phosphorylation level of STAT3 (p-STAT3)
[3]; 24 h post-TVA treatment
  p-AKT level: increased p-AKT level at 24 h
[4]
  anti-tumor immunity (CD8+ T cells, dendritic cells, Treg, TAMs): enhances anti-tumor immunity
[5]
  exhaustion of primary human bulk T cells and CD8+ T cells treated with recombinant PD-L1: significantly reverses exhaustion
B16F10 tumor
  body weights of mice: did not alter body weights
Colon tumors
  tumorigenesis and tumor progression (tumor multiplicity, pathology): Suppresses Tumorigenesis and Tumor Progression
Human CD8^+ T cells
  GO enrichment of altered gene bodies (KAS-seq): G-protein coupled receptor (GPCR) activities among the top-enriched ontologies
[6]; B16F10 tumors from syngeneic mice fed on TVA
  p-CREB and p-STAT1 levels in tumor-infiltrating CD8+ T cells: Increased p-CREB and p-STAT1 levels
[6]; TVA diet, B16F10 tumors
  CD4+ T cell population in TILs: not altered
  tumor-infiltrating populations of neutrophils and monocytes: markedly increases tumor-infiltrating populations of neutrophils and monocytes
[6]; TVA diet, spleens, dLNs and tumors of B16F10 tumor-bearing mice
  conventional CD4+ T cell or CD4+Foxp3+ Treg cell populations: has no effects on conventional CD4^+ T cell
[6]; dietary TVA, B16F10 tumors
  cytokine expression in tumor-infiltrating CD8+ T cells: increased expression levels of cytokines including IL-2, TNF-α, and IFN-γ
[6]; dietary TVA, tumors and spleens, not dLNs
  exhaustion of CD8+ T cells (PD-1 and LAG-3 expression): reduces exhaustion of CD8^+ T cells in tumors and spleens
[6]; enriched diet, B16F10 tumors
  CD8+ T cell population in tumor-infiltrating lymphocytes (TILs): increased CD8^+ T cell population
Mouse CD8^+ T cell
  Mouse CD8^+ T cell IL-2 level changes after treatment: 193.6%
Influenza virus; TVA exposure during fetal and infant stages, TVA diet since weaning
  survival after influenza virus challenge: significantly increased survival
Influenza virus; TVA mice
  immune responses to viral exposure, male vs female: better immune responses to viral exposure compared to female TVA mice
[7]
  average TVA level in tumor interstitial fluid (TIF): ~48 µM
  average serum TVA level: ~386 µM
Mouse T cell
  Mouse T cell IL-2 level changes after treatment: 183.5%
Mouse T cell; 20 μM TVA (FIG. 17A)
  IL-2 production from mouse primary T cells: enhances IL-2 production
